{"source": "patent US20130123481A1", "about": "“MODIFIED NUCLEOSIDES, NUCLEOTIDES, AND NUCLEIC ACIDS, AND USES THEREOF” (MODERNA THERAPEUTICS, priority 2011, published 2013)", "key": {"[1]": {"system": "peripheral blood mononuclear cells (PBMC)", "assay": "In Vitro Screening in PBMC - G-CSF protein expression", "format": "cell-based, human", "settings": "500 ng mRNA", "from_the_text": "The supernatant was harvested and stored frozen until analyzed by ELISA to determine the G-CSF protein expression, and the induction of the cytokines interferon-alpha (IFN-α) and tumor necrosis factor alpha (TNF-α)."}, "[2]": {"system": "human embryonic kidney 293 (HEK293) cells", "assay": "Toxicity of Nucleoside Triphosphates (NTPs), CYTO TOX-GLO assay", "format": "cell-based", "settings": "human", "protocol": "The cytotoxicity of natural and modified nucleoside triphosphates (NTPs) alone or in combination with other bases, was analyzed in human embryonic kidney 293 (HEK293) cells in the absence of transfection reagent. […] 10 ul of the NTPs outlined in Table 12 were combined with 10 ul of lipid dilution and incubated for 30 minutes to form a complex before 80 ul of the HEK293 cell suspension was added to the NTP complex. Natural and modified NTPs were transfected at a concentration of 2.1 nM, 21 nM, 210 nM, 2.1 um, 21 uM, 210 um or 2.1 mM. NTPs in combination were transfected at a total concentration of NTPs of 8.4 nM, 84 nM, 840 nM, 8.4 uM, 84 uM, 840 uM and 8.4 mM."}, "[3]": {"settings": "PBMC Donor 1, 0.4 uL Lipofectamine 2000"}}, "data": [{"molecule": "COC(=O)C=Cc1cn([C@@H]2O[C@H](CO)[C@@H](O)[C@H]2O)c(=O)[nH]c1=O", "note": "[5-(2-carbomethoxyvinyl)uridine]", "values": [{"measurement": "G-CSF Protein Expression", "setting": "[1]; [3]", "result": 77, "unit": "pg/mL"}, {"measurement": "G-CSF Protein Expression", "setting": "[1]; PBMC Donor 2", "result": 286, "unit": "pg/mL"}, {"measurement": "G-CSF Protein Expression", "setting": "[1]; PBMC Donor 3", "result": 177, "unit": "pg/mL"}]}, {"molecule": "Nc1nc(=O)n([C@@H]2O[C@H](CO)[C@@H](O)[C@H]2O)cc1C=O", "note": "[5-formylcytidine]", "values": [{"measurement": "G-CSF Protein Expression", "setting": "[1]; [3]", "result": 18, "unit": "pg/mL"}, {"measurement": "G-CSF Protein Expression", "setting": "[1]; PBMC Donor 2", "result": 205, "unit": "pg/mL"}, {"measurement": "G-CSF Protein Expression", "setting": "[1]; PBMC Donor 3", "result": 23, "unit": "pg/mL"}]}, {"molecule": "Cc1c[nH]c(=O)nc1N", "note": "[5-methyl cytosine]", "values": [{"measurement": "percent of viable cells", "setting": "[2]; 4 h, 2.1 nM", "result": 92.23, "unit": "%"}, {"measurement": "percent of viable cells", "setting": "[2]; 4 h, 21 nM", "result": 91.40, "unit": "%"}, {"measurement": "percent of viable cells", "setting": "[2]; 4 h, 210 nM", "result": 92.31, "unit": "%"}, {"measurement": "percent of viable cells", "setting": "[2]; 4 h, 2.1 uM", "result": 91.31, "unit": "%"}, {"measurement": "percent of viable cells", "setting": "[2]; 4 h, 21 uM", "result": 91.16, "unit": "%"}, {"measurement": "percent of viable cells", "setting": "[2]; 4 h, 210 uM", "result": 91.54, "unit": "%"}, {"measurement": "percent of viable cells", "setting": "[2]; 4 h, 2.1 mM", "result": 92.01, "unit": "%"}, {"measurement": "percent of viable cells", "setting": "[2]; 24 h, 2.1 nM", "result": 86.35, "unit": "%"}, {"measurement": "percent of viable cells", "setting": "[2]; 24 h, 21 nM", "result": 86.37, "unit": "%"}, {"measurement": "percent of viable cells", "setting": "[2]; 24 h, 210 nM", "result": 84.71, "unit": "%"}, {"measurement": "percent of viable cells", "setting": "[2]; 24 h, 2.1 uM", "result": 85.14, "unit": "%"}, {"measurement": "percent of viable cells", "setting": "[2]; 24 h, 21 uM", "result": 84.72, "unit": "%"}, {"measurement": "percent of viable cells", "setting": "[2]; 24 h, 210 uM", "result": 85.76, "unit": "%"}, {"measurement": "percent of viable cells", "setting": "[2]; 24 h, 2.1 mM", "result": 87.97, "unit": "%"}, {"measurement": "percent of viable cells", "setting": "[2]; 48 h, 2.1 nM", "result": 88.18, "unit": "%"}, {"measurement": "percent of viable cells", "setting": "[2]; 48 h, 21 nM", "result": 87.10, "unit": "%"}, {"measurement": "percent of viable cells", "setting": "[2]; 48 h, 210 nM", "result": 86.44, "unit": "%"}, {"measurement": "percent of viable cells", "setting": "[2]; 48 h, 2.1 uM", "result": 86.18, "unit": "%"}, {"measurement": "percent of viable cells", "setting": "[2]; 48 h, 21 uM", "result": 85.74, "unit": "%"}, {"measurement": "percent of viable cells", "setting": "[2]; 48 h, 210 uM", "result": 85.94, "unit": "%"}, {"measurement": "percent of viable cells", "setting": "[2]; 48 h, 2.1 mM", "result": 87.29, "unit": "%"}, {"measurement": "percent of viable cells", "setting": "[2]; 72 h, 2.1 nM", "result": 91.93, "unit": "%"}, {"measurement": "percent of viable cells", "setting": "[2]; 72 h, 21 nM", "result": 92.10, "unit": "%"}, {"measurement": "percent of viable cells", "setting": "[2]; 72 h, 210 nM", "result": 89.97, "unit": "%"}, {"measurement": "percent of viable cells", "setting": "[2]; 72 h, 2.1 uM", "result": 90.92, "unit": "%"}, {"measurement": "percent of viable cells", "setting": "[2]; 72 h, 21 uM", "result": 92.26, "unit": "%"}, {"measurement": "percent of viable cells", "setting": "[2]; 72 h, 210 uM", "result": 88.10, "unit": "%"}, {"measurement": "percent of viable cells", "setting": "[2]; 72 h, 2.1 mM", "result": 96.08, "unit": "%"}]}, {"molecule": "Nc1ncnc2nc[nH]c12", "note": "[Adenine]", "values": [{"measurement": "percent of viable cells", "setting": "[2]; 4 h, 2.1 nM", "result": 93.48, "unit": "%"}, {"measurement": "percent of viable cells", "setting": "[2]; 4 h, 21 nM", "result": 93.21, "unit": "%"}, {"measurement": "percent of viable cells", "setting": "[2]; 4 h, 210 nM", "result": 90.36, "unit": "%"}, {"measurement": "percent of viable cells", "setting": "[2]; 4 h, 2.1 uM", "result": 90.23, "unit": "%"}, {"measurement": "percent of viable cells", "setting": "[2]; 4 h, 21 uM", "result": 91.20, "unit": "%"}, {"measurement": "percent of viable cells", "setting": "[2]; 4 h, 210 uM", "result": 85.97, "unit": "%"}, {"measurement": "percent of viable cells", "setting": "[2]; 4 h, 2.1 mM", "result": 90.03, "unit": "%"}, {"measurement": "percent of viable cells", "setting": "[2]; 24 h, 2.1 nM", "result": 86.44, "unit": "%"}, {"measurement": "percent of viable cells", "setting": "[2]; 24 h, 21 nM", "result": 87.19, "unit": "%"}, {"measurement": "percent of viable cells", "setting": "[2]; 24 h, 210 nM", "result": 86.94, "unit": "%"}, {"measurement": "percent of viable cells", "setting": "[2]; 24 h, 2.1 uM", "result": 86.81, "unit": "%"}, {"measurement": "percent of viable cells", "setting": "[2]; 24 h, 21 uM", "result": 86.86, "unit": "%"}, {"measurement": "percent of viable cells", "setting": "[2]; 24 h, 210 uM", "result": 87.31, "unit": "%"}, {"measurement": "percent of viable cells", "setting": "[2]; 24 h, 2.1 mM", "result": 88.42, "unit": "%"}, {"measurement": "percent of viable cells", "setting": "[2]; 48 h, 2.1 nM", "result": 92.12, "unit": "%"}, {"measurement": "percent of viable cells", "setting": "[2]; 48 h, 21 nM", "result": 91.13, "unit": "%"}, {"measurement": "percent of viable cells", "setting": "[2]; 48 h, 210 nM", "result": 89.17, "unit": "%"}, {"measurement": "percent of viable cells", "setting": "[2]; 48 h, 2.1 uM", "result": 89.80, "unit": "%"}, {"measurement": "percent of viable cells", "setting": "[2]; 48 h, 21 uM", "result": 89.94, "unit": "%"}, {"measurement": "percent of viable cells", "setting": "[2]; 48 h, 210 uM", "result": 90.55, "unit": "%"}, {"measurement": "percent of viable cells", "setting": "[2]; 48 h, 2.1 mM", "result": 93.71, "unit": "%"}, {"measurement": "percent of viable cells", "setting": "[2]; 72 h, 2.1 nM", "result": 95.74, "unit": "%"}, {"measurement": "percent of viable cells", "setting": "[2]; 72 h, 21 nM", "result": 93.88, "unit": "%"}, {"measurement": "percent of viable cells", "setting": "[2]; 72 h, 210 nM", "result": 92.22, "unit": "%"}, {"measurement": "percent of viable cells", "setting": "[2]; 72 h, 2.1 uM", "result": 94.58, "unit": "%"}, {"measurement": "percent of viable cells", "setting": "[2]; 72 h, 21 uM", "result": 93.83, "unit": "%"}, {"measurement": "percent of viable cells", "setting": "[2]; 72 h, 210 uM", "result": 94.81, "unit": "%"}, {"measurement": "percent of viable cells", "setting": "[2]; 72 h, 2.1 mM", "result": 97.49, "unit": "%"}]}, {"molecule": "Nc1cc[nH]c(=O)n1", "note": "[Cytosine]", "values": [{"measurement": "percent of viable cells", "setting": "[2]; 4 h, 2.1 nM", "result": 93.34, "unit": "%"}, {"measurement": "percent of viable cells", "setting": "[2]; 4 h, 21 nM", "result": 93.11, "unit": "%"}, {"measurement": "percent of viable cells", "setting": "[2]; 4 h, 210 nM", "result": 88.95, "unit": "%"}, {"measurement": "percent of viable cells", "setting": "[2]; 4 h, 2.1 uM", "result": 90.49, "unit": "%"}, {"measurement": "percent of viable cells", "setting": "[2]; 4 h, 21 uM", "result": 91.41, "unit": "%"}, {"measurement": "percent of viable cells", "setting": "[2]; 4 h, 210 uM", "result": 89.88, "unit": "%"}, {"measurement": "percent of viable cells", "setting": "[2]; 4 h, 2.1 mM", "result": 90.51, "unit": "%"}, {"measurement": "percent of viable cells", "setting": "[2]; 24 h, 2.1 nM", "result": 85.78, "unit": "%"}, {"measurement": "percent of viable cells", "setting": "[2]; 24 h, 21 nM", "result": 86.16, "unit": "%"}, {"measurement": "percent of viable cells", "setting": "[2]; 24 h, 210 nM", "result": 86.12, "unit": "%"}, {"measurement": "percent of viable cells", "setting": "[2]; 24 h, 2.1 uM", "result": 86.70, "unit": "%"}, {"measurement": "percent of viable cells", "setting": "[2]; 24 h, 21 uM", "result": 85.72, "unit": "%"}, {"measurement": "percent of viable cells", "setting": "[2]; 24 h, 210 uM", "result": 86.33, "unit": "%"}, {"measurement": "percent of viable cells", "setting": "[2]; 24 h, 2.1 mM", "result": 86.92, "unit": "%"}, {"measurement": "percent of viable cells", "setting": "[2]; 48 h, 2.1 nM", "result": 88.99, "unit": "%"}, {"measurement": "percent of viable cells", "setting": "[2]; 48 h, 21 nM", "result": 88.95, "unit": "%"}, {"measurement": "percent of viable cells", "setting": "[2]; 48 h, 210 nM", "result": 85.36, "unit": "%"}, {"measurement": "percent of viable cells", "setting": "[2]; 48 h, 2.1 uM", "result": 87.73, "unit": "%"}, {"measurement": "percent of viable cells", "setting": "[2]; 48 h, 21 uM", "result": 87.28, "unit": "%"}, {"measurement": "percent of viable cells", "setting": "[2]; 48 h, 210 uM", "result": 87.81, "unit": "%"}, {"measurement": "percent of viable cells", "setting": "[2]; 48 h, 2.1 mM", "result": 94.23, "unit": "%"}, {"measurement": "percent of viable cells", "setting": "[2]; 72 h, 2.1 nM", "result": 94.22, "unit": "%"}, {"measurement": "percent of viable cells", "setting": "[2]; 72 h, 21 nM", "result": 91.80, "unit": "%"}, {"measurement": "percent of viable cells", "setting": "[2]; 72 h, 210 nM", "result": 88.22, "unit": "%"}, {"measurement": "percent of viable cells", "setting": "[2]; 72 h, 2.1 uM", "result": 88.93, "unit": "%"}, {"measurement": "percent of viable cells", "setting": "[2]; 72 h, 21 uM", "result": 92.22, "unit": "%"}, {"measurement": "percent of viable cells", "setting": "[2]; 72 h, 210 uM", "result": 92.34, "unit": "%"}, {"measurement": "percent of viable cells", "setting": "[2]; 72 h, 2.1 mM", "result": 97.15, "unit": "%"}]}]}
